This note sets out measurements from ChEMBL document CHEMBL5241082, “Discovery and Characterization of Benzimidazole Derivative XY123 as a Potent, Selective, and Orally Available RORγ Inverse Agonist” (J Med Chem, 2021).

A short description of series [1]: in vivo. Particulars: Sprague-Dawley, rat, iv, 5 mg/kg.
Series [2] is described as follows: in vitro. Particulars: human, liver microsomes.
Series [3] in a line: in vitro. The note with it: rat, liver microsomes.

In the case of `CCS(=O)(=O)c1ccc(CC(=O)Nc2ccc(-c3nc4ccc(C(F)(F)F)cc4n3[C@@H](C)c3ccc(F)cc3)cc2)cc1`, in series [1], the clearance at 24 h is 3.33 mL/min/kg. Further, the half-life at 1 µM in series [2] and in series [3] was above 2 h in each case.

With `O=C(c1ccc(F)cc1)C1CCN(CCn2c(=O)[nH]c3ccccc3c2=O)CC1` [KETANSERIN], the half-life at 1 µM in series [2] and in series [3] was above 2 h each time.

On to `CCS(=O)(=O)c1ccc(CC(=O)Nc2ccc(-c3nc4ccc(C(F)(F)F)cc4n3[C@H](C)c3ccc(F)cc3)cc2)cc1`, for which, in series [1], the clearance at 24 h was 3 mL/min/kg. Also, the half-life at 1 µM in series [2] was determined as 0.0505 h; in series [3], 0.373 h.
